# Data taken from patent US20070197549A1, “Tetrazole compounds and their use as metabotropic glutamate receptor antagonists” (AstraZeneca AB, priority 2004, published 2007).
# Biological target: T1, human mGluR5d (Homo sapiens, UniProt P41594)
# T1 construct: expressed in transfected cells; GHEK cells stably expressing human mGluR5d are named only for the IP3 assay
# Assay: FLIPR analysis of [Ca2+]i mobilization in cells expressing human mGluR5d
# Type: cell-based
# Procedure: For FLIPR analysis, cells expressing human mGluR5das described in WO97/05252 were seeded on collagen coated clear bottom 96-well plates with black sides and analysis of [Ca^2+]i mobilization was done 24 h after seeding.
# FLIPR experiments were done using a laser setting of 0.800 W and a 0.4 second CCD camera shutter speed. Each FLIPR experiment was initiated with 160 μl of buffer present in each well of the cell plate. After each addition of the compound, the fluorescence signal was sampled 50 times at 1 second intervals followed by 3 samples at 5 second intervals. Responses were measured as the peak height of the response within the sample period. EC50 and IC50 determinations were made from data obtained from 8-point concentration response curves (CRC) performed in duplicate. Agonist CRC were generated by scaling all responses to the maximal response observed for the plate. […]
# FLIPR experiments were done using a laser setting of 0.800 W and a 0.4 second CCD camera shutter speed with excitation and emission wavelengths of 488 nm and 562 nm, respectively. […] After each addition the fluorescence signal was sampled 50 times at 1 second intervals followed by 3 samples at 5 second intervals. Responses were measured as the peak height of the response within the sample period. […]
# T1 sequence (P41594 21-942 isoform P41594-3 limits assumed): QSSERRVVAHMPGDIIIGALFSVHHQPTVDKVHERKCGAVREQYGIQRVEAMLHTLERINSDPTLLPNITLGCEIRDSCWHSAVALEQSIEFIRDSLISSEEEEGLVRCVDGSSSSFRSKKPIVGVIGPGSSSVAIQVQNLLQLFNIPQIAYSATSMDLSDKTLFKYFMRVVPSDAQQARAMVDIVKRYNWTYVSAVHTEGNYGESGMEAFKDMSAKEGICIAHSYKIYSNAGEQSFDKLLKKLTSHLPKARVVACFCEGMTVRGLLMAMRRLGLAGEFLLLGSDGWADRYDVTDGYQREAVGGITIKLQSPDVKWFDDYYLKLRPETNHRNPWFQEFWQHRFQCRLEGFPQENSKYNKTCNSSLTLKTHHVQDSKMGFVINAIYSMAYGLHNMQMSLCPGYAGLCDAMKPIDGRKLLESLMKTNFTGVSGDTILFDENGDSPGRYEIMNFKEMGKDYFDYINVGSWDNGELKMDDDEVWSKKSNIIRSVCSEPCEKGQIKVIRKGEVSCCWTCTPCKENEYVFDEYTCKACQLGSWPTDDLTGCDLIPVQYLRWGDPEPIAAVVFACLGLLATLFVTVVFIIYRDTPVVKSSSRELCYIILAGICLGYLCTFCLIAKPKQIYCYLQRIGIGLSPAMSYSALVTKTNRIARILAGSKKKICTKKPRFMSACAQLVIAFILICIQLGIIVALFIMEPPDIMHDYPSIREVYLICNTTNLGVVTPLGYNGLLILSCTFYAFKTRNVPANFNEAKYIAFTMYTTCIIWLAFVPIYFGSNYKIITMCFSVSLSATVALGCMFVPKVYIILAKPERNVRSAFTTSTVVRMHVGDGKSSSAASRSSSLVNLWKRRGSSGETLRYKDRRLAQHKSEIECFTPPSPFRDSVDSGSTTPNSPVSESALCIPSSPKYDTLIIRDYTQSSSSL
row,Structure (SMILES),IC50 [nM]
1,CCOC(=O)N1CCN(C(C)c2nnn(-c3cccc(Cl)c3)n2)CC1 (centres unmarked) [Ethyl 4-{1-[2-(3-chlorophenyl)-2H-tetrazol-5-yl]ethyl}piperazine-1-carboxylate],132
2,"CC(Sc1nnc(-c2ccncc2)n1C)c1nnn(-c2cc(Cl)ccc2F)n1 (centres unmarked) [4-(5-{1-[2-(5-Chloro-2-fluoro-phenyl)-2H-tetrazol-5-yl]-ethylsulfanyl}-4-methyl-4H-[1,2,4]triazol-3-yl)-pyridine]",55
